Columns and labels:
Assay type in all cases: functional
Campylobacter coli [1] = experiment: Antimicrobial activity against Campylobacter coli by disk diffusion method
Campylobacter jejuni = experiment: Antimicrobial activity against Campylobacter jejuni by disk diffusion method
Campylobacter coli [2] = experiment: Antimicrobial activity against Campylobacter coli assessed as resistant rate

| Compound | diameter of the inhibition zone (DIZ) (Campylobacter coli [1]) | diameter of the inhibition zone (DIZ) (Campylobacter jejuni) | Activity (Campylobacter coli [2]) [%] |
| --- | --- | --- | --- |
| O=C(O)c1cn(C2CC2)c2cc(N3CCNCC3)c(F)cc2c1=O [CIPROFLOXACIN] | >=20 mm |  |  |
| CC[C@H]1OC(=O)[C@H](C)[C@@H](O[C@H]2C[C@@](C)(OC)[C@@H](O)[C@H](C)O2)[C@H](C)[C@@H](O[C@@H]2O[C@H](C)C[C@H](N(C)C)[C@H]2O)[C@](C)(O)C[C@@H](C)C(=O)[C@H](C)[C@@H](O)[C@]1(C)O [ERYTHROMYCIN] | >=15 mm |  |  |
| CN(C)[C@@H]1C(O)=C(C(N)=O)C(=O)[C@@]2(O)C(O)=C3C(=O)c4c(O)cccc4[C@@](C)(O)[C@H]3C[C@@H]12 [TETRACYCLINE] | >=26 mm | <=20 mm | 48 |

Source: ChEMBL document CHEMBL1275568, “Comparison of disk diffusion and agar dilution methods for erythromycin, ciprofloxacin, and tetracycline susceptibility testing of Campylobacter coli and for tetracycline susceptibility testing of Campylobacter jejuni subsp. jejuni” (2008)
